According to patent publication US11377451B2, “Compositions and methods for treating cancer” (The Regents of the University of California, priority 2019, dated 2022):

Key:
HK301 = test: GI50 assay (Cell Titer Glo proliferation, 3 days); format: cell-based, human; settings: Homo sapiens, 72 h; HK301, 3 days; read-out: HK301 GI50
GBM39 = test: GI50 assay (Cell Titer Glo proliferation, 3 days); format: cell-based, human; settings: Homo sapiens, 72 h; GBM39, 3 days

CN(C)C[C@H]1COc2cc3ncnc(Nc4cccc(Br)c4F)c3cc2O1 [JGK066S]
GI50 (HK301): 0.301 µM | GI50 (GBM39): 2.63 µM

CN(C)CCC1COc2cc3c(Nc4cccc(Br)c4F)ncnc3cc2O1 (racemic) [JGK087, (±)-N-(3-Bromo-2-fluorophenyl)-8-[2-(dimethylamino)ethyl]-7,8-dihydro[1,4]dioxino[2,3-g]quinazolin-4-amine]
GI50 (HK301): 3.74 µM | GI50 (GBM39): 5.26 µM

COC(=O)[C@@H](Cc1ccc(Nc2ncnc3cc4c(cc23)OCCO4)cc1)NC(=O)OC(C)(C)C [JGK014]
GI50 (HK301): 11.8 µM | GI50 (GBM39): 27.9 µM

Brc1cccc(Nc2ncnc3cc4c(cc23)OCCO4)c1 [JGK073]
GI50 (HK301): 2.06 µM | GI50 (GBM39): 6.07 µM

Fc1c(Br)cccc1Nc1ncnc2cc3c(cc12)OC(CN1CCCC1)CO3 (racemic) [JGK067, (±)-N-(3-Bromo-2-fluorophenyl)-7-[(pyrrolidin-1-yl)methyl]-7,8-dihydro[1,4]dioxino[2,3-g]quinazolin-4-amine]
GI50 (HK301): 0.898 µM | GI50 (GBM39): 2.2 µM

Fc1c(Cl)cccc1Nc1ncnc2cc3c(cc12)OCO3 [JGK041, N-(3-Chloro-2-fluorophenyl)-2H-[1,3]dioxolo[4,5-g]quinazolin-8-amine]
GI50 (HK301): 1.66 µM | GI50 (GBM39): 6.04 µM

FC(F)(F)c1c(Cl)cccc1Nc1ncnc2cc3c(cc12)OCCO3 [JGK017]
GI50 (HK301): 64.2 µM | GI50 (GBM39): 97.6 µM

Fc1c(Br)cccc1Nc1ncnc2cc3c(cc12)OC(CCN1CCCCC1)CO3 (racemic) [JGK085, (±)-N-(3-Bromo-2-fluorophenyl)-7-[2-(piperidin-1-yl)ethyl]-7,8-dihydro[1,4]dioxino[2,3-g]quinazolin-4-amine]
GI50 (HK301): 1.02 µM | GI50 (GBM39): 2.62 µM

Fc1ccc(Nc2ncnc3cc4c(cc23)OCCO4)c(F)c1 [JGK025]
GI50 (HK301): 10.7 µM | GI50 (GBM39): 27.7 µM

CCOC(=O)N(c1cccc(Cl)c1F)c1ncnc2cc3c(cc12)OCCO3 [JGK047, Ethyl (3-chloro-2-fluorophenyl)7,8-dihydro[1,4]dioxino[2,3-g]quinazolin-4-ylcarbamate]
GI50 (HK301): 316 µM

Fc1ccc(Br)cc1Nc1ncnc2cc3c(cc12)OCCO3 [JGK055, N-(5-Bromo-2-fluorophenyl)-7,8-dihydro[1,4]dioxino[2,3-g]quinazolin-4-amine]
GI50 (HK301): 0.29 µM | GI50 (GBM39): 0.966 µM

N#Cc1cccc(Nc2ncnc3cc4c(cc23)OCCO4)c1F [JGK044, 3-[(7,8-Dihydro[1,4]dioxino[2,3-g]quinazolin-4-yl)amino]-2-fluorobenzonitrile]
GI50 (HK301): 4.52 µM | GI50 (GBM39): 5.63 µM

Fc1c(Cl)cccc1Nc1ncnc2cc3c(cc12)OCCCO3 [JGK040, N-(3-Chloro-2-fluorophenyl)-8,9-dihydro-7H-[1,4]dioxepino[2,3-g]quinazolin-4-amine]
GI50 (HK301): 1.72 µM | GI50 (GBM39): 7.12 µM

C#Cc1cccc(N(C(=O)OC(C)(C)C)C2=NC(OC)N(C(=O)OC(C)(C)C)c3cc(OCCOC)c(OCCOC)cc32)c1 (stereo not shown) [JGK001]
GI50 (HK301): 2.21 µM | GI50 (GBM39): 19.7 µM

N[C@@H](Cc1ccc(Nc2ncnc3cc4c(cc23)OCCO4)cc1)C(=O)O [JGK023]
GI50 (HK301): 86.2 µM | GI50 (GBM39): 96.3 µM

Fc1c(Nc2ncnc3cc4c(cc23)OCCO4)ccc(Br)c1Br [JGK054, N-(3,4-Dibromo-2-fluorophenyl)-7,8-dihydro[1,4]dioxino[2,3-g]quinazolin-4-amine]
GI50 (HK301): 5.72 µM | GI50 (GBM39): 7.7 µM

Fc1c(Br)cccc1Nc1ncnc2c(F)c3c(cc12)OCCO3 [JGK071, N-(3-Bromo-2-fluorophenyl)-10-fluoro-7,8-dihydro[1,4]dioxino[2,3-g]quinazolin-4-amine]
GI50 (HK301): 5.75 µM | GI50 (GBM39): 10.3 µM

Fc1ccc(F)c(Nc2ncnc3cc4c(cc23)OCCO4)c1 [JGK026]
GI50 (HK301): 6.12 µM | GI50 (GBM39): 16.5 µM

Fc1cc(Br)c(F)c(Nc2ncnc3cc4c(cc23)OCCO4)c1 [JGK061, N-(3-Bromo-2,5-difluorophenyl)-7,8-dihydro[1,4]dioxino[2,3-g]quinazolin-4-amine]
GI50 (HK301): 1.13 µM | GI50 (GBM39): 1.73 µM

OC1COc2cc3ncnc(Nc4cccc(Br)c4F)c3cc2O1 (racemic) [JGK050, (±)-4-(3-Bromo-2-fluoroanilino)-7,8-dihydro[1,4]dioxino[2,3-g]quinazolin-7-ol]
GI50 (HK301): 1.16 µM | GI50 (GBM39): 3.57 µM

C#Cc1cccc(N(C(=O)CCCCOC(=O)CCCCOC(=O)CCCCOC(C)=O)c2ncnc3cc(OCCOC)c(OCCOC)cc23)c1 [JGK009]
GI50 (HK301): 6.1 µM | GI50 (GBM39): 14.6 µM

Fc1ccccc1Nc1ncnc2cc3c(cc12)OCCO3 [JGK035, N-(2-Fluorophenyl)-7,8-dihydro[1,4]dioxino[2,3-g]quinazolin-4-amine]
GI50 (HK301): 4.04 µM | GI50 (GBM39): 10.7 µM

Fc1c(Br)cccc1Nc1ncnc2cc3c(cc12)OCC(CCN1CCOCC1)O3 (racemic) [JGK086, (±)-N-(3-Bromo-2-fluorophenyl)-8-[2-(morpholin-4-yl)ethyl]-7,8-dihydro[1,4]dioxino[2,3-g]quinazolin-4-amine]
GI50 (HK301): 2.56 µM | GI50 (GBM39): 4.45 µM

Fc1c(Br)cccc1Nc1ncnc2cc3c(cc12)OCC(CCN1CCCCC1)O3 (racemic) [JGK090, (±)-N-(3-Bromo-2-fluorophenyl)-8-[2-(piperidin-1-yl)ethyl]-7,8-dihydro[1,4]dioxino[2,3-g]quinazolin-4-amine]
GI50 (HK301): 2.39 µM | GI50 (GBM39): 4.33 µM

Fc1ccc(Nc2ncnc3cc4c(cc23)OCCO4)c(F)c1Br [JGK057, N-(3-Bromo-2,4-difluorophenyl)-7,8-dihydro[1,4]dioxino[2,3-g]quinazolin-4-amine]
GI50 (HK301): 1.38 µM | GI50 (GBM39): 9.36 µM

Fc1c(Br)cccc1Nc1ncnc2cc3c(cc12)OC(CCN1CCOCC1)CO3 (racemic) [JGK064, (±)-N-(3-Bromo-2-fluorophenyl)-7-[2-(morpholin-4-yl)ethyl]-7,8-dihydro[1,4]dioxino[2,3-g]quinazolin-4-amine]
GI50 (HK301): 1.21 µM | GI50 (GBM39): 4 µM

CN1CCN(CC2COc3cc4ncnc(Nc5cccc(Cl)c5F)c4cc3O2)CC1 (racemic) [JGK075, (±)-N-(3-Chloro-2-fluorophenyl)-7-[(4-methylpiperazin-1-yl)methyl]-7,8-dihydro[1,4]dioxino [2,3-g]quinazolin-4-amine]
GI50 (HK301): 1.18 µM | GI50 (GBM39): 4 µM

Fc1c(Nc2ncnc3cc4c(cc23)OCCO4)ccc(Cl)c1Br [JGK053, N-(3-Bromo-4-chloro-2-fluorophenyl)-7,8-dihydro[1,4]dioxino[2,3-g]quinazolin-4-amine]
GI50 (HK301): 2.78 µM | GI50 (GBM39): 5.28 µM

N[C@H](Cc1ccc(Nc2ncnc3cc4c(cc23)OCCO4)cc1)C(=O)O [JGK021]
GI50 (HK301): 481 µM | GI50 (GBM39): 556 µM

Fc1c(Br)cc(Cl)cc1Nc1ncnc2cc3c(cc12)OCCO3 [JGK058, N-(3-Bromo-5-chloro-2-fluorophenyl)-7,8-dihydro[1,4]dioxino[2,3-g]quinazolin-4-amine]
GI50 (HK301): 1.85 µM | GI50 (GBM39): 13 µM

N#Cc1cccc(Nc2ncnc3cc4c(cc23)OCCO4)c1 [JGK045, 3-[(7,8-Dihydro[1,4]dioxino[2,3-g]quinazolin-4-yl)amino]benzonitrile]
GI50 (HK301): 3.94 µM | GI50 (GBM39): 10.9 µM

C#Cc1cccc(N(C(=O)[C@H](Cc2ccccc2)NC(=O)OC(C)(C)C)c2ncnc3cc(OCCOC)c(OCCOC)cc23)c1 [JGK007]
GI50 (HK301): 92.1 µM

CC(=O)OCN(c1cccc(Cl)c1F)c1ncnc2cc3c(cc12)OCCO3 [JGK043, [(3-Chloro-2-fluorophenyl)(7,8-dihydro[1,4]dioxino[2,3-g]quinazolin-4-yl)amino]methyl acetate]
GI50 (HK301): 0.745 µM | GI50 (GBM39): 1.78 µM

CN(C)CC1COc2cc3c(Nc4cccc(Br)c4F)ncnc3cc2O1 (racemic) [JGK077, (±)-N-(3-Bromo-2-fluorophenyl)-8-[(dimethylamino)methyl]-7,8-dihydro[1,4]dioxino[2,3-g]quinazolin-4-amine]
GI50 (HK301): 6.84 µM | GI50 (GBM39): 16.7 µM

C=CC1COc2cc3ncnc(Nc4cccc(Br)c4F)c3cc2O1 (racemic) [JGK062, (±)-N-(3-Bromo-2-fluorophenyl)-7-ethenyl-7,8-dihydro[1,4]dioxino[2,3-g]quinazolin-4-amine]
GI50 (HK301): 3.78 µM | GI50 (GBM39): 5.86 µM

Fc1c(Br)cccc1Nc1ncnc2cc3c(cc12)OCC(CN1CCCCC1)O3 (racemic) [JGK080, (±)-N-(3-Bromo-2-fluorophenyl)-8-[(piperidin-1-yl)methyl]-7,8-dihydro[1,4]dioxino[2,3-g]quinazolin-4-amine]
GI50 (HK301): 7.37 µM | GI50 (GBM39): 14.5 µM

COC(=O)[C@H](Cc1ccc(Nc2ncnc3cc4c(cc23)OCCO4)cc1)NC(=O)OC(C)(C)C [JGK015]
GI50 (HK301): 2.15 µM | GI50 (GBM39): 11.5 µM

Fc1c(Br)cccc1Nc1ncnc2cc3c(cc12)OC(CCN1CCCC1)CO3 (racemic) [JGK084, (±)-N-(3-Bromo-2-fluorophenyl)-7-[2-(pyrrolidin-1-yl)ethyl]-7,8-dihydro[1,4]dioxino[2,3-g]quinazolin-4-amine]
GI50 (HK301): 1.83 µM | GI50 (GBM39): 5.64 µM

COC(=O)[C@H](Cc1ccc(NC(=O)COc2cc3c(Nc4cccc(Cl)c4F)ncnc3cc2OC)cc1)NC(=O)OC(C)(C)C [JGK024]
GI50 (HK301): 156 µM | GI50 (GBM39): 125 µM

COc1cc2ncnc(Nc3cccc(Cl)c3F)c2cc1OC(C)=O [JGK018]
GI50 (HK301): 1.07 µM | GI50 (GBM39): 4.54 µM

Fc1c(Br)cccc1Nc1ncnc2cc3c(cc12)OCC(CN1CCCC1)O3 (racemic) [JGK079, (±)-N-(3-Bromo-2-fluorophenyl)-8-[(pyrrolidin-1-yl)methyl]-7,8-dihydro[1,4]dioxino[2,3-g]quinazolin-4-amine]
GI50 (HK301): 7.21 µM | GI50 (GBM39): 15.7 µM

OC[C@H]1COc2cc3ncnc(Nc4cccc(Br)c4F)c3cc2O1 [JGK082S]
GI50 (HK301): 1.67 µM | GI50 (GBM39): 1.89 µM

CN1CCN(CCC2COc3cc4c(Nc5cccc(Br)c5F)ncnc4cc3O2)CC1 (racemic) [JGK088, (±)-N-(3-Bromo-2-fluorophenyl)-8-[2-(4-methylpiperazin-1-yl)ethyl]-7,8-dihydro[1,4]dioxino[2,3-g]quinazolin-4-amine]
GI50 (HK301): 2.13 µM | GI50 (GBM39): 4.06 µM

CC(C)(C)OC(=O)N(CCS(C)(=O)=O)Cc1ccc(-c2ccc3ncnc(Nc4ccc(OCc5cccc(F)c5)c(Cl)c4)c3c2)o1 [JGK008]
GI50 (HK301): 81.3 µM
